The experiment relates to serum lipids and serum lipid hydroperoxide. Put plainly: Pharmacological test method A for anti-hyperlipidemic activity (serum lipids, 2 weeks feeding). The conditions noted are these: for AI [(TC - HDL-C)/(HDL-C)] / HDL-C in serum / LPO in serum / PL in serum / TC in serum / TG in serum: 1% in hyperlipidemic diet, 2 weeks. In kind it is in vivo, male Wistar strain rats. The protocol:
Male Wistar strain rats (100±lg, each 10 rats were formed into a group) were used as test animals. Diet for the control group was prepared by thorough mixing of 20% casein, 62.5% glucose, 10% hydrogenated coconut oil, 2% agar powder, 4% vitamin-containing salt mixture, 1% cholesterol, and 0.5% cholic acid (this composition is described by Fukushima et al, in "Yakugaku Zassi", 89, No. 6, pp. 857-862 (1962)). Diet for the test groups was prepared by good mixing of 1% each of cycloartenol, 24-methylenecycloartanol, and cyclobranol with the control group's diet. Each rat was kept in a cage at a constant temperature of 23±1° C. and a constant R.H. of 55±5% for 2 weeks, during which 10 g/day of the prescribed was given. Finally the rats were fasted from food except water for 16 hours (from 4 p.m. of the 14th test day to 8 a.m. of the 15th test day), and under anesthesia with pentbarbital sodium (tradename: Nembutal), blood was taken from each rat through the descending abdominal arota. Then, TC, HDL-C, TG, PL, and LPO in the serum were measured in the manner that will be described below.
A TC kit-K (supplied by Nippon Shoji Kaisha, Ltd.) was used. The principle of this determination is as follows: The ester of cholesterol in the serum is hydrolyzed with cholesterol-ester hydrolase into free cholesterol and fatty acids. All the free cholesterol is oxidized with cholesterol oxydase to form Δ^4 -cholestenone and hydrogen peroxide. Phenol and 4-aminoantipyrin are oxidatively condensed together by the formed hydrogen peroxide and peroxydase. The produced red quinone coloring matter is measured by colorimetry for absorbance at 500 nm using a spectrophotometer, thereby determining the TC:
The color-developing liquid (3.0 ml) is well mixed with the sample serum (0.02 ml). The mixture once heated at 37° C. for 15 minutes, is measured for absorbance at 500 nm with a spectrophotometer. The found absorbance is denoted by EA. On the other hand, the color-developing liquid (3.0 ml) is well mixed with the standard solution. The mixture is treated and measured for absorbance at 500 nm in the same manner as the above. This found absorbance is denoted by ES. Both EA and ES are determined with reference to the value of the blank test conducted using the color-developing liquid (3.0 ml) alone. [formula]
An HDL-C kit-N (supplied by Nippon Shoji Kaisha, Ltd.) was used. […] (VLDL) and lo density lipoprotein (LDL) in the serum is precipitated by the action of heparin. The precipitate is separated by centrifugation. High density lipoprotein (HDL) is dissolved in the separated supernatant. Esters of cholesterol in this fraction is hydrolyzed with cholesterol-ester hydrolase into free cholesterol and fatty acids. All the free cholesterol is oxidized with cholesterol oxydase to form Δ^4 -cholestenone and hydrogen peroxide. Phenol and 4-aminoantipyrine are oxidatively condensed together by the formed hydrogen peroxide and peroxydase. The produced red quinone coloring matter is measured by colorimetry for absorbance at 500 nm using a spectrophotometer, thereby determining the HDL-C.
A PL kit-K (supplied by Nippon Shoji Kaisha, Ltd.) was used for the determination. Lecithin, sphingomyelin, and lysolecithin are decomposed by phospholipase D into choline and phosphatidic acid, N-acylsphingosyl phosphate, or lysophosphatidic acid, respectively. The resulting choline is quantitatively decomposed by choline oxydase into hydrogen peroxide and betaine. With this hydrogen peroxide, and aid of peroxydase, phenol and 4-aminoantipyrin are condensed into red quinone pigment, then the absorbance at 500 nm of which is measured with a spectrophotometer, thereby determining the PL.
Serum TG level was determined by means of a triglyceride test kit (supplied by Wako Pure Chemical Industries, Ltd.) in which acetylacetone is used for a reagent, in the following manner: Serum proteins are precipitated, when isopropyl alcohol and the sample serum are mixed. […]

Take `CC(C)=C(C)CCC(C)C1CCC2(C)C3CCC4C(C)(C)C(OC(=O)/C=C/c5ccc(O)c(O)c5)CCC45CC35CCC12C` (stereo not drawn) [Example 32, cyclobranyl-3,4-dihydroxycinnamate]: the “AI [(TC - HDL-C)/(HDL-C)]” value was 1.135, the HDL-C in serum is 89.2 mg/dL, the LPO in serum was 2.06 nmol/mL and the PL in serum amounted to 168.2 mg/dL. This compound also yielded a TC in serum of 190.4 mg/dL and a TG in serum of 40.7 mg/dL. For the setting “versus control group”, the “AI % of diff.” value was -32.6%, the “HDL-C % of diff.” value is listed as “+10.2%”, the “HDL-C Diff.” value was “+8.3 mg/dl” and the “LPO % of diff.” value is -10.7%. Besides, under “versus control group”, the “LPO Diff.” value was -0.25 nmol/mL, the “PL % of diff.” value is -6.4%, the “PL Diff.” value was -11.5 mg/dL and the “TC % of diff.” value was -12.3%. Moreover, for the setting “versus control group”, the “TC Diff.” value was -26.7 mg/dL, the “TG % of diff.” value is reported as -4.8% and the “TG Diff.” value was -2.1 mg/dL.
Regarding `C=C(CCC(C)C1CCC2(C)C3CCC4C(C)(C)C(OC(=O)CCCCCCC/C=C\C/C=C\CCCCC)CCC45CC35CCC12C)C(C)C` (stereo not drawn) [Example 93, 24-Methylenecycloartanyl ester of linoleic acid], the “AI [(TC - HDL-C)/(HDL-C)]” value is on record as 0.761, the HDL-C in serum stood at 91.5 mg/dL, the LPO in serum stood at 1.70 nmol/mL and the PL in serum was 150.2 mg/dL. Besides, the TC in serum is 161.1 mg/dL and the TG in serum was 35.1 mg/dL. Further, where the note is “versus control group”, the “AI % of diff.” value was -37.7%, the “AI Diff.” value is given as -0.461, the “HDL-C % of diff.” value is “+5.8%” and the “HDL-C Diff.” value is on record as “+5.0 mg/dl”. Besides, for the setting “versus control group”, the “LPO % of diff.” value was -24.3%, the “LPO Diff.” value is -0.54 nmol/mL, the “PL % of diff.” value was -13.0% and the “PL Diff.” value is -22.4 mg/dL. In addition, under “versus control group”, the “TC % of diff.” value is -16.2%, the “TC Diff.” value is -31.1 mg/dL, the “TG % of diff.” value is recorded as -3.3% and the “TG Diff.” value is -1.2 mg/dL.
For `C=C(CCC(C)C1CCC2(C)C3CCC4C(C)(C)C(OC(=O)C=Cc5cccc(N)c5)CCC45CC35CCC12C)C(C)C` (stereo not drawn) [Example 112, 24-methylenecycloartanyl ester of m-aminocinnamic acid], the “AI [(TC - HDL-C)/(HDL-C)]” value is given as 3.624, the HDL-C in serum is 46.8 mg/dL, the LPO in serum was 2.16 nmol/mL and the PL in serum was found to be 150.4 mg/dL. The TC in serum is 216.4 mg/dL and the TG in serum turned out to be 28.5 mg/dL. In addition, for the setting “versus control group”, the “AI % of diff.” value is given as -53.8%, the “AI Diff.” value is given as -4.216, the “HDL-C % of diff.” value is “+26.8%” and the “HDL-C Diff.” value was “+9.9 mg/dl”. Also, where the note is “versus control group”, the “LPO % of diff.” value is reported as -22.9%, the “LPO Diff.” value is -0.64 nmol/mL, the “PL Diff.” value is -15.2 mg/dL and the “TC % of diff.” value is recorded as -33.7%. Where the note is “versus control group”, the “TC Diff.” value was -109.8 mg/dL, the “TG % of diff.” value is listed as -16.2% and the “TG Diff.” value was -5.5 mg/dL.
Consider `COc1cc(C(=O)OC2CCC34CC35CCC3(C)C(C(C)CCC=C(C)C)CCC3(C)C5CCC4C2(C)C)ccc1O` (stereo not drawn) [Example 29, cycloartenyl-4-hydroxy-3-methoxybenzoate], for which the “AI [(TC - HDL-C)/(HDL-C)]” value is 0.611, the HDL-C in serum was 101.0 mg/dL, the LPO in serum is 1.95 nmol/mL and the PL in serum turned out to be 160.6 mg/dL. The TC in serum came out at 162.7 mg/dL and the TG in serum worked out at 32.7 mg/dL. Moreover, where the note is “versus control group”, the “AI % of diff.” value is recorded as -39.0%, the “AI Diff.” value was -0.391, the “HDL-C % of diff.” value is listed as “+5.0%” and the “HDL-C Diff.” value is given as “+4.8 mg/dl”. Further, under “versus control group”, the “LPO % of diff.” value was -16.3%, the “LPO Diff.” value is -0.38 nmol/mL, the “PL % of diff.” value was -11.2% and the “PL Diff.” value was -20.3 mg/dL. Under “versus control group”, the “TC % of diff.” value was -15.5%, the “TC Diff.” value was -29.9 mg/dL, the “TG % of diff.” value is -1.5% and the “TG Diff.” value was -0.5 mg/dL.
“cycloartenyl-3,4-diacetoxycinnamate [Example 1]”: the “AI [(TC - HDL-C)/(HDL-C)]” value is on record as 1.410, the HDL-C in serum came to 72.0 mg/dL, the LPO in serum was 2.03 nmol/mL and the PL in serum stood at 173.7 mg/dL. This compound gave a TC in serum of 173.5 mg/dL and a TG in serum of 38.0 mg/dL. For the same compound, where the note is “Table 2, versus control group”, the “AI Diff.” value was -1.107 mg/dL. Also, for the setting “versus control group”, the “AI % of diff.” value was -7.1%, the “HDL-C % of diff.” value is on record as -11.6%, the “HDL-C Diff.” value was -9.5 mg/dL and the “LPO % of diff.” value is listed as -10.6%. For the same compound, for the setting “versus control group”, the “LPO Diff.” value is -0.24 nmol/mL, the “PL % of diff.” value was “+0.06%”, the “PL Diff.” value was “+0.1 mg/dl” and the “TC % of diff.” value is reported as -15.4%. Also, under “versus control group”, the “TC Diff.” value was -31.6 mg/dL, the “TG % of diff.” value is “+10.9%” and the “TG Diff.” value was “+3.7 mg/dl”.
`CC(C)=C(C)CCC(C)C1CCC2(C)C3CCC4C(C)(C)C(OC(=O)c5ccc(N)cc5)CCC45CC35CCC12C` (stereo not drawn) [Example 43, cyclobranyl-p-aminobenzoate]: the “AI [(TC - HDL-C)/(HDL-C)]” value was found to be 0.713, the HDL-C in serum was found to be 91.9 mg/dL, the LPO in serum worked out at 1.54 nmol/mL and the PL in serum was found to be 146.0 mg/dL. The same compound registered a TC in serum of 157.4 mg/dL and a TG in serum of 33.3 mg/dL. Under “versus control group”, the “AI % of diff.” value is -41.7%, the “AI Diff.” value is -0.509, the “HDL-C % of diff.” value is listed as “+6.2%” and the “HDL-C Diff.” value is listed as “+5.4 mg/dl”. Besides, for the setting “versus control group”, the “LPO % of diff.” value is -31.3%, the “LPO Diff.” value was -0.70 nmol/mL, the “PL % of diff.” value is given as -15.4% and the “TC % of diff.” value was -18.1%. Under “versus control group”, the “TC Diff.” value is -34.8 mg/dL, the “TG % of diff.” value was -8.2% and the “TG Diff.” value was -3.0 mg/dL.
Turning to `CC(C)=C(C)CCC(C)C1CCC2(C)C3CCC4C(C)(C)C(OC(=O)c5ccc(O)c(O)c5)CCC45CC35CCC12C` (stereo not drawn) [Example 39, cyclobranyl-3,4-dihydroxybenzoate], the “AI [(TC - HDL-C)/(HDL-C)]” value is 0.803, the HDL-C in serum is 98.1 mg/dL, the LPO in serum is 1.99 nmol/mL and the PL in serum came to 155.1 mg/dL. Further, the TC in serum is 176.9 mg/dL and the TG in serum was determined as 39.8 mg/dL. For the same compound, where the note is “versus control group”, the “AI % of diff.” value is -52.3%, the “AI Diff.” value is -0.881, the “HDL-C % of diff.” value is reported as “+21.2%” and the “HDL-C Diff.” value is recorded as “+17.2 mg/dl”. Further, for the setting “versus control group”, the “LPO % of diff.” value is -14.0%, the “LPO Diff.” value was -0.32 nmol/mL, the “PL % of diff.” value is on record as -13.7% and the “PL Diff.” value is -24.6 mg/dL. Further, for the setting “versus control group”, the “TC % of diff.” value is -18.5%, the “TC Diff.” value was -40.2 mg/dL, the “TG % of diff.” value was -6.9% and the “TG Diff.” value was -3.0 mg/dL.
